Test results from patent US6573297B2, “(2-substituted oxyphenyl)alkanamide derivative, hair growth promoter and external composition for skin using the same” (Shiseido Co., Ltd., priority 1999, dated 2003).

tested on: C3H/HeNCrj mice; assay: Hair Regrowth Test; type: in vivo; conditions: 23 days of application; 0.1 ml of 0.1 w/v % ethanol solution on shaved back once a day; average of group (10 mice)
Method: By using C3H/HeNCrj mice, whose hair cycle was in resting stage, the experiment was performed according to the method of Ogawa et. al. (Normal and Abnormal Epidermal Differentiation, Edited by M. Seiji and I. A. Bernstein, Pages 159-170, 1982, Todai Shuppan). 10 mice were used in a group and the mice's hair within the area of 3×4 cm of the regions of back was shaved by a clipper and a shaver. 0.1 ml of ethanol (negative contrast) or ethanol solution of the tested compound (0.1 w/v %) was applied on the shaved portion once a day. For hair regrowth effect of the tested compound, the hair regrowth area of mice's region of back was measured and ratio of the hair regrowth area with respect to the shaved area was evaluated as hair regrowth area rate (%).

| SMILES | Hair Regrowth Area Rate [%] |
| --- | --- |
| CCCCCCCCCCCCCCCCCCNC(=O)Oc1ccccc1CCC(=O)NCCCN(C)C [Compound 1, 2-[3-[[3-(Dimethylamino)propyl]amino]-3-oxopropyl]phenyl N-octadecylcarbamate] | 69 |
| CCCCCCCCCCCCCCCCCCNC(=O)Oc1ccccc1CCC(=O)NCCCN(C)C.Cl [Compound 2, 2-[3-[[3-(Dimethylamino)propyl]amino]-3-oxopropyl]phenyl N-octadecylcarbamate hydrochloride] | 10 |

same assay, conditions: 24 days of application; 0.1 ml of 0.1 w/v % ethanol solution on shaved back once a day; average of group (10 mice)

| SMILES | Hair Regrowth Area Rate [%] |
| --- | --- |
| CCCCCCCCCCCCCCCCCCNC(=O)Oc1ccccc1CCC(=O)N1CCN(C)CC1 [Compound 3, 2-[3-(4-Methylpiperazino)-3-oxopropyl]phenyl N-octadecylcarbamate] | 100 |
| CCCCCCCCCCCCCCCCCCNC(=O)Oc1ccccc1CCC(=O)N1CCN(C)CC1.Cl [Compound 4, 2-[3-(4-Methylpiperazino)-3-oxopropyl]phenyl N-octadecylcarbamate hydrochloride] | 100 |
| CCCCCCCCCCCCCCCCCCNC(=O)Oc1ccccc1CCC(=O)NCCCN1CCOCC1 [Compound 5, 2-{3-[(3-Morpholinopropyl)amino]-3-oxopropyl}phenyl N-octadecylcarbamate] | 16 |
| CCCCCCCCCCCCCCCCCCNC(=O)Oc1ccccc1CCC(=O)NCCCN1CCOCC1.Cl [Compound 6, 2-{3-[(3-Morpholinopropyl)amino]-3-oxopropyl}phenyl N-octadecylcarbamate hydrochloride] | 17 |
| CCCCCCCCCCCCCCCCCCOc1ccccc1CCC(=O)NCCCN(C)C.Cl [Compound 8, N-[3-(Dimethylamino)propyl]-3-[2-(octadecyloxy)phenyl]propanamide hydrochloride] | 100 |
| CCCCCCCCCCCCCCCCCCOc1ccccc1CCC(=O)NCCCN1CCOCC1.Cl [Compound 10, N-(3-Morpholinopropyl)-3-[2-(octadecyloxy)phenyl]propanamide hydrochloride] | 38 |
| CCCCCCCCCCCCCCCCCCOc1ccccc1CCC(=O)N1CCN(C)CC1.Cl [Compound 12, 1-(4-Methylpiperazino)-3-[2-(octadecyloxy)phenyl]-1-propanone hydrochloride] | 38 |
